Results from PubChem BioAssay AID1626 (SRMLSC, 2009).

System: M. tuberculosis H37Rv growth inhibition
Experiment: M. tuberculosis H37Rv growth inhibitors, H37Rv strain (AID 1626)
Details: for IC90: measured here: IC90 against H37Rv; for CC50: measured here: Vero cell cytotoxicity

| Compound | IC50 | IC90 | CC50 |
| --- | --- | --- | --- |
| O=C(OCC(=O)c1c[nH]c2ccccc12)c1cc2ccccc2cc1O | 11.3 µM | > 100 µM | > 40 µM |
| Cc1nn(-c2ccccc2)c2c1C(c1ccc(O)c(O)c1)N1C(=N2)C(Nc2ccccc2)=Nc2ccccc21 (centres undefined) | 1.5 µM | 2.11 µM | 8.02 µM |
| CC(C)(C)C(=O)/C(=C/c1ccncc1)n1cncn1 | 8.39 µM | 11.7 µM | 5.11 µM |
| CNc1nc(SC)nc2ccsc12 | 5.66 µM | 15.2 µM |  |
| O=C(Nc1nc(-c2ccccn2)cs1)c1ccc(Br)s1 | < 0.195 µM | 0.585 µM | 2.73 µM |
| COc1ccc(Cn2c(SCc3ccccc3C)nc3cc(OC)c(OC)cc3c2=N)cc1 | 2.24 µM | 3.02 µM | 6.78 µM |
| COc1ccc(CNCc2cn(-c3cccc(F)c3)nc2-c2ccc(C)o2)cc1 | 6.12 µM | 10.5 µM | > 40 µM |
| Fc1ccc(Oc2nc(-c3ccccn3)nc3ccccc23)cc1 | 1.96 µM | 11.2 µM | > 40 µM |
| CCOc1ccc(NCC(=O)Nc2ccc(Cl)cc2C)cc1 | 8.53 µM | > 100 µM |  |
| COc1ccccc1OC(=O)CCN1c2ccccc2Sc2ccccc21 | 11.8 µM | 17.5 µM |  |
| N#Cc1ncc(-c2ccc3c(c2)OCCOCCOCCOCCOCCO3)nc1C#N | 1.8 µM | 3.08 µM | 22.6 µM |
| CSc1nc2nc(C)c(C/C=C/c3ccccc3)c(=O)n2[nH]1 | 11.4 µM | > 100 µM |  |
| O=C(C[n+]1cc(-c2ccccc2)n2c1CCC2)N1c2ccccc2Sc2ccccc21 | 22.5 µM | > 100 µM |  |
| CCOc1ccc(NC(=O)CCSc2ccc3ccccc3n2)cc1 | 6.54 µM | > 100 µM |  |
| COc1ccc(-c2nnc(SC(C(=O)c3c[nH]c4ccccc34)c3ccccc3)n2N)cc1OC (centres undefined) |  | > 100 µM | > 40 µM |
| COc1ccc(C(C)(C)C)cc1NC(=O)COC(=O)c1cc(SC)ccc1Cl | 54.6 µM | > 100 µM |  |
| Cc1cc(NC(=O)c2c(F)cccc2F)n(-c2nc3ccccc3[nH]2)n1 | 11.3 µM | 21.2 µM | 35.7 µM |
| CC(C)N1C(=O)NC(=O)C2(Cc3cc([N+](=O)[O-])ccc3N(C)C2c2ccccc2)C1=O (centres undefined) | 17.8 µM | 52.1 µM | > 40 µM |
| CCCCCc1cc(=O)oc2c(C(CCN3CCCC(C)C3)c3ccc(N(C)C)cc3)c(OC)cc(OC)c12 (centres undefined) | 5.6 µM | 6.31 µM | 16.5 µM |
| O=C(/C=C/c1ccc(Cl)cc1Cl)c1cccnc1 | 2.97 µM | 3.35 µM | 30.6 µM |
| CN(C)c1ccc(O)c2c1CC1CC3[C@@H](N(C)C)C(=O)C(C(N)=O)=C(O)[C@]3(O)C(=O)C1=C2O (some centres undefined) | 3.14 µM | 7.87 µM | > 40 µM |

| Compound | IC50 | IC90 | CC50 |
| --- | --- | --- | --- |
| O=C1/C(=C/c2cccnc2)Oc2cc(OS(=O)(=O)c3ccc(F)cc3)ccc21 | 72.6 µM | > 100 µM |  |
| COc1cc(OC)c2c(-c3ccccc3)cc(=O)oc2c1C(CCN1CCCC(C)C1)c1ccc(N(C)C)cc1 (centres undefined) | 4.18 µM | 5.41 µM | 17.1 µM |
| Cc1sc(NC(=O)c2ccco2)c(C(c2ccccc2)N2CCC(C)CC2)c1C (centres undefined) |  |  | > 40 µM |
| O=C(Nc1ccc(-c2csnn2)cc1)C1CC1 |  | > 100 µM |  |
| COc1cc(-c2nnc(SCC(=O)OC3CCCCC3)o2)cc(OC)c1OC | < 0.195 µM | 1.78 µM |  |
| O=C(OCC(=O)N1CCN(C(=O)c2ccco2)CC1)c1sc2ccccc2c1Cl |  | > 100 µM |  |
| CCCCNC(=O)Nc1nnc(-c2ccc(Cl)cc2)o1 | 1.33 µM | 3.59 µM |  |
| CCOC(=O)C(C)Sc1ncc(-c2ccc(Cl)cc2)cn1 (centres undefined) | 2.71 µM | 5.04 µM |  |
| O=C(/C=C/c1ccccc1)/C=C/c1ccccc1 | 5.86 µM | 6.68 µM | 31.2 µM |
| O=C1c2cccc3c(N4CCOCC4)c([N+](=O)[O-])cc(c23)C(=O)N1c1cccc2ccccc12 | 5.97 µM | 6.82 µM | > 40 µM |
| Nc1c2c(nc3ccn(Cc4ccccc4)c(=O)c13)CCC2 | 7.11 µM | 15.3 µM | > 40 µM |
| N=C1SCC(=O)N1c1ncc(Cc2ccccc2Cl)s1 | < 0.391 µM | 15.9 µM | > 40 µM |
| CCOC(=O)CSc1cccc2cccnc12 |  |  | 30.7 µM |
| Cc1c(CN2CCC(CO)(CCOc3ccccc3)CC2)[nH]c2ccc(Cl)cc12 | 4.57 µM | 5.33 µM | 15.6 µM |
| CCOC(=O)c1ccc(NC(=O)Cc2coc3cc4c(cc23)CCC4)cc1 | 6.36 µM | > 100 µM | > 40 µM |
| O=C(Oc1ccccc1Cl)c1ccc(N2CCOCC2)c([N+](=O)[O-])c1 | 4.09 µM | 11.1 µM |  |
| CCc1ccc2[nH]c(O)c(N=Nc3nc(-c4ccccc4)cs3)c2c1 | 1.81 µM | 3.44 µM | 37 µM |
| Cc1ccc2c(Cl)cc(Cl)c(OCC(=O)NC(C)(C)C)c2n1 | 11.6 µM | > 100 µM | > 40 µM |
| Cc1ccc(-n2c(C)cc(C3N=C(N)Nc4nc5ccccc5n43)c2C)c(C)c1 (centres undefined) | 8.26 µM | 10.8 µM | > 40 µM |
| COc1cc(/C=C(/C#N)C(=O)Nc2ccc(C)cc2)ccc1Oc1nc(Cl)ncc1F |  |  | > 40 µM |
| O=C(OCc1nc2ccccc2s1)c1ccco1 | 32.7 µM | > 100 µM |  |

| Compound | IC50 | IC90 | CC50 |
| --- | --- | --- | --- |
| CSc1ccc(N=Nc2c(C)[nH]n(C)c2=O)cc1 | 7.43 µM | > 100 µM | > 40 µM |
| CCOc1ccc(NC(=O)NC23CC4CC(CC(C4)C2)C3)cc1 | 2.58 µM | > 100 µM |  |
| O=C(Nc1nc(-c2ccncc2)cs1)C1c2ccccc2Oc2ccccc21 |  |  | > 40 µM |
| O=C(NC1CCCCC1)C(c1ccc2ncccc2c1)N(Cc1ccccc1)C(=O)c1ccc2c(c1)OCCO2 (centres undefined) | 19 µM | 28.2 µM |  |
| CCOC(=O)c1ccc(NC(=O)Nc2ncccc2C)cc1 |  |  | > 40 µM |
| O=C(/C=C/c1ccco1)c1ccc(NC(=O)C23CC4CC(CC(C4)C2)C3)cc1 | < 0.195 µM | > 100 µM |  |
| CCC1CCCCN1C(=O)COC(=O)c1cc(Br)ccc1Cl (centres undefined) | 15.2 µM | > 100 µM |  |
| CCOC(=O)c1ccc(N=CC2=C(O)CC(C)(C)CC2=O)cc1 | 1.35 µM | > 100 µM |  |
| CCOc1ccc(NC(=O)CN2CCN(CC(=O)Nc3ccc(Cl)c(C(F)(F)F)c3)CC2)cc1 | 7.93 µM | 11.3 µM | 20.8 µM |
| CCOc1ccc(N=CC2=C(O)CC(C)(C)CC2=O)cc1 |  | > 100 µM |  |
| Oc1c(Cl)cc(Cl)c2cccnc12 | 0.779 µM | 0.858 µM | 11.9 µM |
| CCCOC(=O)c1ccc(NC(=O)CCC(=O)OCC)cc1 | < 0.195 µM | > 100 µM |  |
| Cc1c(-c2cccc(Cl)c2)nc2ccccc2c1C(=O)OCC(=O)Nc1ccc2c(c1)OCO2 | 10.9 µM | > 100 µM | 38.8 µM |
| Cn1c(C(C#N)C(=O)c2ccco2)nc2ccccc21 (centres undefined) | 6.99 µM | > 100 µM |  |
| CCn1c(NC(=O)c2ccccc2)nc2ccccc21 | 1.71 µM | 8.64 µM | > 40 µM |
| Cc1cccc(NC(=O)c2ccc([N+](=O)[O-])o2)c1C | 12.2 µM | 23.9 µM | 11.5 µM |
| COc1ccc(C[C@H]2CN3C(=NC[C@@H]3Cc3ccc(O)cc3)N2CCNC(=O)c2ccc(C)c(Br)c2)cc1 | 4.4 µM | 6.16 µM | > 40 µM |
| CN(Cc1nc2ccccc2c(=O)[nH]1)Cc1nc2ccsc2c(=O)[nH]1 | 1.95 µM | 4.36 µM |  |
| CCOc1ccc(NC(=O)c2ccc(NC(=O)c3cn4c5c(c(N6CCN(C)CC6)c(F)cc5c3=O)OCC4C)cc2)cc1 (centres undefined) | 2.83 µM | 3.17 µM | > 40 µM |
| Cc1ccc(C(=O)CC(=O)c2cc(Cl)ccc2O)cc1 | 3.48 µM | 4.67 µM | 20.2 µM |
| CSc1nc2ccc(NC(=O)C3CC(=O)N(Cc4ccccc4)C3)cc2s1 (centres undefined) | 5.17 µM | 7.75 µM |  |

| Compound | IC50 | IC90 | CC50 |
| --- | --- | --- | --- |
| CCOc1ccc(NC(=O)CCN2CCN(c3ccccc3)CC2)cc1 |  | > 100 µM |  |
| COc1ccc(OCc2n(CC(=O)OC3CC(C)CCC3C(C)C)c3ccccc3[n+]2C)cc1 (centres undefined) | 3.34 µM | 5.49 µM | 26.4 µM |
| CN1CCN(C2=Cc3ccc(Cl)cc3Sc3ccc(F)cc32)CC1 | 10.9 µM | 12.3 µM | 33.9 µM |
| CCOc1ccc(NC(=O)CN2CCN(C3c4ccccc4-c4ccccc43)CC2)cc1 | 22.2 µM | > 100 µM | > 40 µM |
| O=c1cc(C(Cl)(Cl)Cl)oc2c1ccc1ccccc12 | 1.1 µM | 1.8 µM | 10.9 µM |
| COc1ccc(NC(=O)c2nc[nH]c2C(=O)N[C@@H](C)c2ccccc2)cc1 | 5.7 µM | 22.4 µM | > 40 µM |
| CCCCCCCCC/C(=N\O)c1ccccn1 | 1.55 µM | 1.68 µM | 13.2 µM |
| O=C(C1CCN(c2nnc(-n3cccc3)s2)CC1)N1CCc2ccccc2C1 | 0.701 µM | 0.937 µM |  |
| N=C1S/C(=C\c2ccco2)C(=O)N1c1nccs1 | < 0.195 µM | < 0.195 µM | 22.5 µM |
| CC(Oc1ccc2oc3ccccc3c2c1)C(=O)NC12CC3CC(CC(C3)C1)C2 (centres undefined) | 44.7 µM | > 100 µM |  |
| CCOC(=O)c1cnc(-n2nc(C)cc2C)nc1NC(C)c1ccccc1 (centres undefined) | 1.06 µM | 2.08 µM | 36 µM |
| Cc1cc(Nc2ccccc2)nc(NCc2ccccc2)n1 | 10.9 µM | 14.4 µM | 23.3 µM |
| O=C(OCC(=O)N1CCc2ccccc21)c1ccc(Cl)nc1 | 14.2 µM | > 100 µM |  |
| O=C(OCc1cccc2ccccc12)c1ccc2c(=O)[nH]c(CN3CCOCC3)nc2c1 | 0.478 µM | > 100 µM | > 40 µM |
| O=C(COC(=O)Cc1ccccc1)Nc1ccc(SC(F)F)cc1 | 36.4 µM | > 100 µM |  |
| Cc1ccc(N(CCC#N)C(=O)CCl)cc1C | 19.7 µM | 38.4 µM | 1.94 µM |
| CCCOC(=O)c1ccc(NC(=O)Oc2ccccc2)cc1 | 4.53 µM | > 100 µM |  |
| COC(=O)c1cc(Sc2cccc(Cl)c2Cl)ccn1 | 11.4 µM | 17 µM |  |
| CNC1=C(N(C(C)=O)c2ccc(Br)cc2)C(=O)c2ccccc2C1=O | 0.654 µM | 2.54 µM | 10 µM |
